# Measured values reported in article PMC5641330, “Prediction of a Therapeutic Dose for Buagafuran, a Potent Anxiolytic Agent by Physiologically Based Pharmacokinetic/Pharmacodynamic Modeling Starting from Pharmacokinetics in Rats and Human” (Frontiers in Pharmacology, 2017).
# Like-named read-outs stand apart in the source and are kept apart here.
# Experiments:
# [1] = Clinical plasma PK in healthy volunteers after oral dosing (observed); type: in vivo; conditions: male, human; for AUC(0-t): read-out: AUC0-t Observed; for AUC(0-inf): read-out: AUC0-∞ Observed; for MRT inf: read-out: MRT(0-∞) Observed
# Description: The study protocol was approved by the Ethics Committee of Peking Union Medical College Hospital approved (Permission Number: 09103), and the Informed Consent Form was signed by all subjects before the study. PVP formulation of buagafuran was packed into capsules for oral administration. In a study of open-label, randomized, cross-over and dose-ranging design, 12 healthy male Chinese volunteers (aged 22–40 with weighing 55–70 kg) received a single oral dose of buagafuran (30, 60, and 120 mg). Serial blood samples were collected up to 48 h. In a phase I, randomized and multiple oral dose study, 5 healthy male Chinese volunteers (aged 20–31 with weighing 55–73 kg) received once-daily oral dose of 60 mg buagafuran for 7 days. On day 1 and 7, plasma samples were collected at the designed time points. Detailed clinical data was previously reported ([Yang et al., 2011], [2013]).
# Pharmacokinetic parameters were determined with a non-compartmental model using WinNonlin v 6.0 (Pharsight Corporation, Mountain View, CA, United States). The area under the compound concentration versus time curve from time zero to the last time point (AUC0-t) and extrapolated to infinity (AUC0-∞) and the peak plasma concentration (Cmax) were calculated.
# CYP3A and CYP2E = test system: CYP3A and CYP2E; parameters: method as in Zhang, 1997; Li et al., 2001; Li, 2010; conditions: ref Zhang, 1997, Li et al., 2001, 2010; cited from earlier work
# [2] = parameters: method as in Hu et al., 2011; conditions: rats, oral administration; ref Hu et al., 2011; cited from earlier work
# [3] = parameters: method as in Zhang, 1997; Li et al., 2001; Li, 2010; conditions: rat liver microsomes, ref Zhang, 1997, Li et al., 2001, 2010; cited from earlier work
# [4] = Plasma protein binding by equilibrium dialysis, human plasma; type: in vitro ADME; conditions: 0.5–2 μg/mL
# Description: The plasma protein binding of buagafuran (0.5–2 μg/mL) was investigated by equilibrium dialysis. Aliquots (0.5 mL) of plasma were dialyzed against 10 mL phosphate buffered saline containing a ^3H-buagafuran tracer over a membrane with an 8,000- to 12,000-dalton molecular weight cutoff. Dialysis experiment was performed for 60 h at 4 °C. After the dialysis period, 100 μL of the PBS fraction (containing unbound buagafuran) and 100 μL of the plasma fraction (containing both bound and unbound drug) was taken for liquid scintillation counting. The ratio of buagafuran concentration in buffer to that in plasma was applied to calculate the unbound fraction (Fu).
# [5] = Clearance prediction from incubation with rat liver microsomes; type: in vitro ADME
# Description: Drug disappearance t1/2 value measurements in rat and human microsomes were used to determine the in vitro apparent intrinsic clearance value (CLintapp) of buagafuran acquired using Then CLintapp was converted to in vivo intrinsic clearance (CLint).
# Rat or human liver microsomal incubation (0.5 mg/mL) was carried out at 37°C in a mixture of 0.5 mL in 0.05 M Tris–HCl buffer (pH 7.4). Buagafuran (2 μM) was added to the incubation system. The addition of NADPH (1 mM) initiated the reaction, then the reaction was incubated for 0, 10, 20, 30, 45, and 60 min. The equal volume of acetonitrile containing the IS (10 ng/mL) was added to stop the reaction. The mixtures were centrifuged at 16000 g for 5 min and the supernatants were determined using LC-MS/MS method.
# The natural log (In) of buagafuran concentration versus time was plotted and the slope of the best fit line of was determined by the data (k). This was converted into in vitro t1/2 where t1/2 = In 2/k. CLintapp was calculated by the following equation: […]
# Where M is the microsomal protein concentration in the incubation. CLint by liver was calculated from equation 2:
# (2) CLint=CLint(app)×mgmicrosome/gliver×liverweight(g)/bodyweight(kg)
# Where a value of 45 mg of protein per gram of liver tissue was used for both rat and human, and a liver weight of 40 and 21 g per kg were applied to rat and human, respectively ([Hosea et al., 2009]). […]
# healthy volunteers = conditions: cited from earlier work
# [6] = oral, 60 mg, multiple dosing (60 mg once daily, 7 days)/first dosing
# [7] = oral, 60 mg, multiple dosing (60 mg once daily, 7 days)/last dosing
# [8] = po, 30 mg, oral single dosing 30 mg
# [9] = po, 60 mg, oral single dosing 60 mg
# [10] = po, 120 mg, oral single dosing 120 mg
smiles,measurement,setting,value
CCCCC1=CCC[C@@]2(C)CC[C@@H]3C[C@]12OC3(C)C [buagafuran],Cmax,[1]; [6],27.1 ng/mL
same,AUC(0-t),[1]; [6],99.4 ng·h/mL
same,AUC(0-inf),[1]; [6],113 ng·h/mL
same,MRT inf,[1]; [6],9.94 h
same,Tmax,"[1]; oral, 60 mg, multiple dosing (60 mg once daily, 7 days)/first dosing, read-out: Tmax Observed",2 h
same,Cmax,[1]; [7],32 ng/mL
same,AUC(0-t),[1]; [7],163 ng·h/mL
same,AUC(0-inf),[1]; [7],231 ng·h/mL
same,MRT inf,[1]; [7],20.9 h
same,Tmax,"[1]; oral, 60 mg, multiple dosing (60 mg once daily, 7 days)/last dosing, read-out: Tmax Observed",3 h
same,Cmax,[1]; [8],19.5 ng/mL
same,AUC(0-t),[1]; [8],47.6 ng·h/mL
same,AUC(0-inf),[1]; [8],54.9 ng·h/mL
same,MRT inf,[1]; [8],3.33 h
same,Tmax,"[1]; po, 30 mg, oral single dosing 30 mg, read-out: Tmax Observed",1 h
same,Cmax,[1]; [9],39.8 ng/mL
same,AUC(0-t),[1]; [9],92.4 ng·h/mL
same,AUC(0-inf),[1]; [9],95.4 ng·h/mL
same,MRT inf,[1]; [9],4.87 h
same,Tmax,"[1]; po, 60 mg, oral single dosing 60 mg, read-out: Tmax Observed",1 h
same,Cmax,[1]; [10],81.6 ng/mL
same,AUC(0-t),[1]; [10],246 ng·h/mL
same,AUC(0-inf),[1]; [10],272 ng·h/mL
same,MRT inf,[1]; [10],5.28 h
same,Tmax,"[1]; po, 120 mg, oral single dosing 120 mg, read-out: Tmax Observed",1 h
same,Tmax,"[1]; po, oral 30–120 mg, read-out: time to peak plasma concentration (Tmax)",0.5 to 2 h
same,major enzymes involved in its metabolism in vitro,CYP3A and CYP2E,CYP3A and CYP2E
same,dose recovered as prototype in the bile,[2],< 0.3%
same,dose recovered as prototype in the urine,[2],less than 0.1%
same,radioactivity recovered in feces,[2],28.7%
same,radioactivity recovered in urine,[2],51.2%
same,total radioactivity recovered,[2],about 80%
same,extraction ratio,[3],about 50%
same,concentration dependence of plasma protein binding,[4]; human plasma,no evident concentration-dependent binding
same,fraction unbound at 60 h,"[4]; human, plasma, equilibrium dialysis, read-out: Fup human (unbound fraction in human plasma)",0.04
same,CLhep predicted,"[5]; from rat liver microsomes, well-stirred model",28.0 mL/min/kg
same,microsomal CLint at 2 μM,"[5]; pH 7.4, rat liver microsomes 0.5 mg/mL, 2 μM, read-out: in vitro CLintapp",33 µL/min/mg
same,well tolerated multiple doses,"healthy volunteers; healthy volunteers, phase I, ref Wang et al., 2011, Chen X. et al., 2013, Yang et al.",up to 120 mg twice daily
same,most common side effect,"healthy volunteers; phase I trials, ref Zhang, 1997, Li et al., 2001",drowsiness
